Experimental findings from patent publication US12005265B2, “Compositions and methods to modulate cell activity” (THE ROCKEFELLER UNIVERSITY, priority 2014, dated 2024) are described below.

The test system of assay [1] is N38 cells. In words: Multiphoton chloride imaging (MQAE) of stably transfected N38 cells. In kind it is cell-based, mouse. The method, then:
Stably transfected cells were washed with Krebs-HEPES buffer 3 times then loaded with MQAE (N-(Ethoxycarbonylmethyl)-6-Methoxyquinolinium Bromide, 5 mM, Invitrogen) for 60 min at room temperature. […] Imaging was performed using LSM 510 NLO inverted multiphoton and confocal system (Zeiss) using a 40× objective with two photon excitation at 750 nm. […] Imaging was repeated in the presence of Ruthenium red (100 μM) (2 occasions for each condition). Images were analyzed using Image J software.

Assay [2] concerns N38 cells. In words: Calcium imaging of stably transfected N38 cells under RF or magnet. In kind it is cell-based, mouse. The following applies: N38 cells expressing αGFP-TRPV1/GFP-ferritin. The method, then:
TRPV1 is a non-selective cation channel with relatively high permeability to divalent cations, particularly calcium (Ca2+>Mg2+>Na+K+Cs+)^55. […] Cells were washed again in PBS then incubated for 15-30 min in sulfinpyrazone in PBS. […] Images were acquired every 3 seconds for 3 minutes. […] Imaging was repeated in the presence of Ruthenium red (100 μM) (2 occasions for each condition). Images were analyzed using Image J software.
For studies to examine the effects of increasing RF or magnet field strength, to assess the effects of short RF treatment (10s) on calcium responses and to examine the kinetics of the calcium response, cells were loaded with FluoForte 20 μM (Enzo Life Sciences, Lorrach, Germany) in the presence of Pluronic F-127 (0.02% vol/vol) and sulfinpyrazone 500 μM. […] Imaging was performed as above with images acquired every second for 1 minute. Cells were imaged without treatment (4 occasions), before and during RF treatment at 31, 27 and 23 mT (4 occasions each), before and during application of a neodymium magnet at 280 or 130 mT (magnet 2 mm or 5 mm from the cells respectively, 4 occasions each) and before, during and after 10 second treatment with RF (31 mT) (4 occasions). Images were analyzed using Image J software.

Assay [3] concerns N38 cells. In words: Effect of RF on pCREB and c-fos in N38 cells. In kind it is cell-based, mouse. The following applies: N38 cells expressing αGFP-TRPV1/GFP-ferritin. The method, then:
Effect of RF or magnet on pCREB and cFos: 24 h prior to the study, cells were placed in 1% FBS medium at 32° C. to ensure minimal activation of TRPV1 and calcium dependent pathways. On the day of study, cells were incubated in 500 μl of calcium imaging buffer at room temperature (control) or in a RF field (31 mT) at room temperature. For magnet treatment, cells were treated with a static magnetic field (280 mT) for 5 seconds every 2 minutes for 1 hour at room temperature. After 60 min, the cells were placed on ice, the supernatant removed and cells lysed with RIPA buffer (40 μl, pCREB) or lysis buffer (100 μl Agilent Absolutely RNA microprep kit) and frozen at −80° C. until assay or RNA purification. Each study was repeated on 3 occasions each with 4 replicates. Control studies with N38 cells alone were performed on 2 occasions with 4 replicates.
Protein was isolated by lysis in RIPA buffer and centrifugation at 16000 rpm, 4° C. for 5 min before addition of 4× Laemelli buffer. Samples were denatured for 5 mins at 95° C. and frozen at −20° C. before assay. Samples (15 ul) were run on a 4-15% gel then transferred to PVDF membrane. Membranes were blocked (3% dried milk in TBST buffer) for 1 hour at room temperature then incubated in primary antibody (Phospho-CREB (Ser133) (87G3) Rabbit mAb (1:1000) or beta Actin Rabbit Ab (1:1000), Cell Signaling) in TBST overnight at 4 degrees. […]

Another assay has as its system HEK or N38 cells. Description: Whole cell voltage clamp recordings of cultured HEK and N38 cells. In kind it is cell-based. The following applies: 2APB 200 μM, −60 mV. The method, then: Neurons expressing GFP were visualized using epifluorescence on an upright Zeiss Axioskop 2FS Plus microscope equipped with a Hamamatsu CCD camera. External solution contained (in mM): 140 NaCl, 2.8KCl, 2CaC2, 1 MgCl2, 1HEPES, 10 glucose, pH 7.4.
I-V relationships were obtained by measuring current responses to increasing 5 mV steps in the presence of 200 μM 2APB. Cells were held at −60 mV. Magnetic activation was applied by bringing a permanent magnet within 500 microns of the recorded cell for 5 seconds with a micromanipulator. Recordings were acquired with an Axopatch 200B amplifier, filtered to 2 kHz and digitized at 10 kHz (pClamp software, Molecular Devices). Data were analyzed using IGOR Pro (Wavemetrics) and NeuroMatic. (neuromatic.thinkrandom.com). Series resistance was monitored and not compensated for. If there was more than a 20% change in series resistance the recording was excluded.

A further assay has as its system αGFP-TRPV1. The following applies: HEK cells transfected with αGFP-TRPV1; 2APB; vs 0.85-fold.
The mark [4] stands for this setting: N38 cells stably transfected with αGFP-TRPV1^Mutant/GFP-ferritin.

Procedure for αGFP-TRPV1: Transfected cells were washed three times in PBS then loaded with Fluo-4 3 μM (Invitrogen) in the presence of sulfinpyrazone 500 μM (Sigma) for 60 min at room temperature. Cells were washed again in PBS then incubated for 30 min in sulfinpyrazone in PBS. Cells were washed and then imaged in calcium imaging buffer. Imaging was performed using a Deltavision personal DV imaging system (Applied Precision, Issawaq, WA) equipped with a custom-made ceramic lens.

In the case of `N.N.N.N.N.N.N.N.N.N.N.N.N.N.[Cl-].[Cl-].[Cl-].[Cl-].[Cl-].[Cl-].[O-2].[O-2].[Ru+3].[Ru+3].[Ru+4]` [ruthenium red], the “effect on magnet-induced increase of intracellular chloride” value in the assay with N38 cells [1] (N38 cells expressing αGFP-TRPV1^Mutant/GFP-ferritin) is reported as “blocked”. Also, in the assay on N38 cells [1] (setting [4]), the “effect on 2APB-induced increase of intracellular chloride” value is listed as “blocked”. In the assay with N38 cells [2], the “effect on RF-induced rise of intracellular calcium” value is “blocked” and the “effect on magnet-induced increase of intracellular calcium” value is listed as “blocked”. Also, in the assay with N38 cells [3], the “effect on RF-induced increase of pCREB and c-fos” value was “blocked”.
In the case of `NCCOB(c1ccccc1)c1ccccc1` [2APB, 2-aminoethoxydiphenyl borate], the “level of intracellular chloride measured by MQAE quenching” value with N38 cells [1] (setting [4]) is “significantly increased”. Moreover, the entries for the “current induced by TRPV1 agonist” value with HEK or N38 cells (HEK cell expressing αGFP-TRPV1/GFP-ferritin) and in the assay on HEK or N38 cells (HEK cell expressing αGFP-TRPV1^Mutant/GFP-ferritin) were “inward current” and “outward current”, respectively. In addition, in the assay with αGFP-TRPV1, the “change in Fluo-4 fluorescence (intracellular calcium)” value is on record as 2.0 fold.
